In patent publication US20070117770A1, “Human ribosomal DNA (rDNA) and ribosomal RNA (rRNA) nucleic acids and uses thereof” (Cylene Pharmaceuticals, Inc., priority 2005, published 2007) one finds remaining activity and inhibition data, which are given here for 2 molecules.

What all share (experiment): Protein kinase inhibition assay
Holding throughout (assay type): biochemical

The target in experiment [1] is ARK5(h) (Homo sapiens, UniProt O60285). Conditions: read-out: percent residual activity of ARK5(h). On the procedure:
(§1) Certain compounds were tested for activity in protein kinase inhibition assays. All substrates were dissolved and diluted to working stocks in de-ionized water, apart from histone H1 (10× working stock in 20 mM MOPS pH 7.0), PDKtide (10× working stock in 50 mM Tris pH 7.0) ATF2 (which is typically stored at a 20× working stock in 50 mM Tris pH 7.5, 150 mM NaCl, 0.1 mM EGTA, 0.03% Brij-35, 50% glycerol, 1 mM benzamidine, 0.2 mM PMSF and 0.1% R-mercaptoethanol), KKLNRTLSFAEPG (SEQ ID NO:203) and RRRLSFAEPG (SEQ ID NO:204) (50 mM HEPES pH 7.4) and GGEEEEYFELVKKKK (SEQ ID NO:205) (20 mM MOPS pH 7.0). All kinases were pre-diluted to a 10× working concentration prior to addition into the assay. The composition of the dilution buffer for each kinase is detailed below.

In experiment [2] the target is BrSK1(h) (Homo sapiens, UniProt Q8TDC3). Conditions: read-out: percent residual activity of BrSK1(h). As for the experimental part:
as §1

The target in experiment [3] is CK1γ2(h) (Homo sapiens, UniProt P78368). To be noted: read-out: percent residual activity of CK1γ2(h). On the procedure: as §1
Experiment [4] addresses CK2α2(h) (Homo sapiens, UniProt P19784). Conditions: read-out: percent residual activity of CK2α2(h). On the procedure:
as §1

In experiment [5] the target is DCAMKL2(h) (Homo sapiens, UniProt Q8N568). To be noted: read-out: percent residual activity of DCAMKL2(h). On the procedure:
as §1

The target of experiment [6] is T1, DRAK1(h) (Homo sapiens, UniProt Q9UEE5).
T1 sequence (Q9UEE5 1-414): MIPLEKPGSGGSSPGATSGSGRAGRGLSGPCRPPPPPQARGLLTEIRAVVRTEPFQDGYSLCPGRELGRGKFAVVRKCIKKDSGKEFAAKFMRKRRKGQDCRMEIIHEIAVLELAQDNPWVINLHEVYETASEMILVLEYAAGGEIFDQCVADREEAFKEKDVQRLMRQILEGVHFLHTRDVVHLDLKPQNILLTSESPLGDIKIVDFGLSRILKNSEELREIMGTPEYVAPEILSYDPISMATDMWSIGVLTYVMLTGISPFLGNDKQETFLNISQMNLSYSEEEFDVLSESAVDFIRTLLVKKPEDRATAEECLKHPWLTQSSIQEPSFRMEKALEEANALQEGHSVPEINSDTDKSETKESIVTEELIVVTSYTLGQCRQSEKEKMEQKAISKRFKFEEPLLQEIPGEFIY
Conditions: for remaining activity at 2.5 µM: read-out: percent residual activity of DRAK1(h). As for the experimental part:
as §1

Experiment [7] has as its target EGFR(T790M)(h) (Homo sapiens, UniProt P00533, T790M). Conditions: read-out: percent residual activity of EGFR(T790M)(h). On the procedure: as §1
The target of experiment [8] is EGFR(T790M, L858R)(h) (Homo sapiens, UniProt P00533, L858R/T790M). To be noted: read-out: percent residual activity of EGFR(T790M, L858R)(h). As for the experimental part:
as §1

Experiment [9] has as its target EphB1(h) (Homo sapiens, UniProt P54762). To be noted: read-out: percent residual activity of EphB1(h). As for the experimental part:
as §1

Experiment [10] concerns the target GRK6(h) (Homo sapiens, UniProt P43250). Conditions: read-out: percent residual activity of GRK6(h). As for the experimental part: as §1
Experiment [11] has as its target HIPK1(h) (Homo sapiens, UniProt Q86Z02). To be noted: read-out: percent residual activity of HIPK1(h). On the procedure: as §1
Experiment [12] addresses IRAK1(h) (Homo sapiens, UniProt P51617). To be noted: read-out: percent residual activity of IRAK1(h). On the procedure:
as §1

The target in experiment [13] is Itk(h) (Homo sapiens, UniProt Q08881). Conditions: read-out: percent residual activity of Itk(h). On the procedure:
as §1

The target of experiment [14] is LOK(h) (Homo sapiens, UniProt O94804). Conditions: read-out: percent residual activity of LOK(h). As for the experimental part:
as §1

The target in experiment [15] is MSSK1(h) (Homo sapiens, UniProt Q9UPE1). Conditions: read-out: percent residual activity of MSSK1(h). On the procedure: as §1
Experiment [16] has as its target Mer(h) (Homo sapiens, UniProt Q12866). To be noted: read-out: percent residual activity of Mer(h). On the procedure:
as §1

For experiment [17], the target named is PhKγ2(h) (Homo sapiens, UniProt P15735). Conditions: read-out: percent residual activity of PhKγ2(h). As for the experimental part:
as §1

Experiment [18] concerns the target PrKX(h) (Homo sapiens, UniProt P51817). To be noted: read-out: percent residual activity of PrKX(h). On the procedure:
as §1

The target of experiment [19] is SIK(h) (Homo sapiens, UniProt P57059). Conditions: read-out: percent residual activity of SIK(h). As for the experimental part:
as §1

In experiment [20] the target is STK33(h) (Homo sapiens, UniProt Q9BYT3). Conditions: read-out: percent residual activity of STK33(h). As for the experimental part: as §1
Experiment [21] has as its target TSSK1(h) (Homo sapiens, UniProt Q9BXA7). Conditions: read-out: percent residual activity of TSSK1(h). As for the experimental part:
as §1

Experiment [22] has as its target WNK3(h) (Homo sapiens, UniProt Q9BYP7). To be noted: read-out: percent residual activity of WNK3(h). On the procedure: as §1
Experiment [23] concerns the target cKit(D816H)(h) (Homo sapiens, UniProt P10721, D816H). To be noted: read-out: percent residual activity of cKit(D816H)(h). On the procedure: as §1

IRAK1(h), sequence (P51617 whole entry): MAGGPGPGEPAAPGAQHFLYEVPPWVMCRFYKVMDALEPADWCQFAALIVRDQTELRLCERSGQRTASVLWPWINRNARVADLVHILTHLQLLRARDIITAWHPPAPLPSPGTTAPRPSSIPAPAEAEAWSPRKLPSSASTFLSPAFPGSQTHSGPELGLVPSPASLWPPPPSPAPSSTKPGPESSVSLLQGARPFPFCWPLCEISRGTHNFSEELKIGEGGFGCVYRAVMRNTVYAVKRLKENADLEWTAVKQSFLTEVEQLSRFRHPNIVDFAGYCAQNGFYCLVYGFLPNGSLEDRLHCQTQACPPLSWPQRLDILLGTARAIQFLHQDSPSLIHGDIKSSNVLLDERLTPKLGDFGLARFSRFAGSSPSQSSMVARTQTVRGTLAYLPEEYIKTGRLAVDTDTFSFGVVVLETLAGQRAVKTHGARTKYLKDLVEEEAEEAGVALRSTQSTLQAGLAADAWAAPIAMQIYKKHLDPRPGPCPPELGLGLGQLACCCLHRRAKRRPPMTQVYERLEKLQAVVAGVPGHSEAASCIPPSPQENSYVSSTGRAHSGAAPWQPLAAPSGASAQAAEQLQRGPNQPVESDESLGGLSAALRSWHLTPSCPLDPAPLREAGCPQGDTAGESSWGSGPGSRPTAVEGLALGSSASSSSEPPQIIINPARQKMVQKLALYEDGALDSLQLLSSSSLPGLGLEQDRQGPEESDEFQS
CK2α2(h), sequence (P19784 whole entry): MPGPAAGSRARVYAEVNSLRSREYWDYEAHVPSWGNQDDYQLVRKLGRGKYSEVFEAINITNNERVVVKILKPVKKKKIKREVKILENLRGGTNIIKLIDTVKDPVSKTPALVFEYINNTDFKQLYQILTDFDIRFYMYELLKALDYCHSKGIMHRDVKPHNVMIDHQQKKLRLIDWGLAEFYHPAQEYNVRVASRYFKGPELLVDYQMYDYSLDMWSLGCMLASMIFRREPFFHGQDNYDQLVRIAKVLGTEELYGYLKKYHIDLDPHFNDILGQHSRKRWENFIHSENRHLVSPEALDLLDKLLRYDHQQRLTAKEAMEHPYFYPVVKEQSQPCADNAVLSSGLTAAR
WNK3(h), sequence (Q9BYP7 whole entry): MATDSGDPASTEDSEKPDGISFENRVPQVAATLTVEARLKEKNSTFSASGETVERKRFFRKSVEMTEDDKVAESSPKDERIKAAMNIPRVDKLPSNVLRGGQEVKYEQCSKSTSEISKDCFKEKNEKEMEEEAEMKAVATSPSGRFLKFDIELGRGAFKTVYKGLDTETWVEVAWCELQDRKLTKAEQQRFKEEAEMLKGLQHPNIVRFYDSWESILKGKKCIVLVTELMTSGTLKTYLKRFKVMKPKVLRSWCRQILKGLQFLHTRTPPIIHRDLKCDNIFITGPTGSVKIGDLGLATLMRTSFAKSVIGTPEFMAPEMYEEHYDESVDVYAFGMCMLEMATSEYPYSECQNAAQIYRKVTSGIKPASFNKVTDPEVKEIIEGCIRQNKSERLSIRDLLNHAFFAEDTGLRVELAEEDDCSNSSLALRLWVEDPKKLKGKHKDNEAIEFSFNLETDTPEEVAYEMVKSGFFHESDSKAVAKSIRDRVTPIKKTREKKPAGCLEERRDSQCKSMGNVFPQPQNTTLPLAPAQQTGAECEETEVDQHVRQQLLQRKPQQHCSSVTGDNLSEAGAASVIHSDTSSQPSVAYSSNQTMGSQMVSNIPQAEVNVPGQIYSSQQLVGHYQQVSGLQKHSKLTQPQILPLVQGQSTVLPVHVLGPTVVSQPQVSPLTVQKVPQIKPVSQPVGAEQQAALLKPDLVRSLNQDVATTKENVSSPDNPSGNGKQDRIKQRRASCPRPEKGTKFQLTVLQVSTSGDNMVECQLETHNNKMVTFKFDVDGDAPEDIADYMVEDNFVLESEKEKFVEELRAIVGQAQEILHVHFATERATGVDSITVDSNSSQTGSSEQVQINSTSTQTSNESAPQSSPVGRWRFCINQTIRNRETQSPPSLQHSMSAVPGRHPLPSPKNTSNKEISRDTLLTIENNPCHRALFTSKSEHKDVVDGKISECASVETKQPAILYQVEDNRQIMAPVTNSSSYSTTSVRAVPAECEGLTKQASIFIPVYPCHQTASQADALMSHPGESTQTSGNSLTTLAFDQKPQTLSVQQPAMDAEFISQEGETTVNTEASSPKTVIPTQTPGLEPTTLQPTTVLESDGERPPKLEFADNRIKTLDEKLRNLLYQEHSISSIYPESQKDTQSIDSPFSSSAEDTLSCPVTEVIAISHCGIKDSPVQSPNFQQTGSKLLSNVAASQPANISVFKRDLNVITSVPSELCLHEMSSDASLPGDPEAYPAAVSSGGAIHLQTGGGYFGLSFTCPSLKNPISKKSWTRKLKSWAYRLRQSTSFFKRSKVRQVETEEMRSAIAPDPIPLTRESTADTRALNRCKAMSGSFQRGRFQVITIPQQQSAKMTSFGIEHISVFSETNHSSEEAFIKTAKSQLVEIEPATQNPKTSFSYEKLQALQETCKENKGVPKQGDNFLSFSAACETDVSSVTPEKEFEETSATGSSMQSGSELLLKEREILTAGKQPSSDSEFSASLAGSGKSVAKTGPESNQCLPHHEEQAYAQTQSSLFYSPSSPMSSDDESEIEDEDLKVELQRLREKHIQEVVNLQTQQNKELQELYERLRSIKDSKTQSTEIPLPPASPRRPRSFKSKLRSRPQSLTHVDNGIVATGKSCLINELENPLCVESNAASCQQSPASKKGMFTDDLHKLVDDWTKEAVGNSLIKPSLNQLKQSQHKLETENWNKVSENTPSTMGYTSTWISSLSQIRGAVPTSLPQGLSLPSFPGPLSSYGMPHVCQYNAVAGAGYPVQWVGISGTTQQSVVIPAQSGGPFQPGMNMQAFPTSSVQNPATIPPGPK
Mer(h), sequence (Q12866 21-999): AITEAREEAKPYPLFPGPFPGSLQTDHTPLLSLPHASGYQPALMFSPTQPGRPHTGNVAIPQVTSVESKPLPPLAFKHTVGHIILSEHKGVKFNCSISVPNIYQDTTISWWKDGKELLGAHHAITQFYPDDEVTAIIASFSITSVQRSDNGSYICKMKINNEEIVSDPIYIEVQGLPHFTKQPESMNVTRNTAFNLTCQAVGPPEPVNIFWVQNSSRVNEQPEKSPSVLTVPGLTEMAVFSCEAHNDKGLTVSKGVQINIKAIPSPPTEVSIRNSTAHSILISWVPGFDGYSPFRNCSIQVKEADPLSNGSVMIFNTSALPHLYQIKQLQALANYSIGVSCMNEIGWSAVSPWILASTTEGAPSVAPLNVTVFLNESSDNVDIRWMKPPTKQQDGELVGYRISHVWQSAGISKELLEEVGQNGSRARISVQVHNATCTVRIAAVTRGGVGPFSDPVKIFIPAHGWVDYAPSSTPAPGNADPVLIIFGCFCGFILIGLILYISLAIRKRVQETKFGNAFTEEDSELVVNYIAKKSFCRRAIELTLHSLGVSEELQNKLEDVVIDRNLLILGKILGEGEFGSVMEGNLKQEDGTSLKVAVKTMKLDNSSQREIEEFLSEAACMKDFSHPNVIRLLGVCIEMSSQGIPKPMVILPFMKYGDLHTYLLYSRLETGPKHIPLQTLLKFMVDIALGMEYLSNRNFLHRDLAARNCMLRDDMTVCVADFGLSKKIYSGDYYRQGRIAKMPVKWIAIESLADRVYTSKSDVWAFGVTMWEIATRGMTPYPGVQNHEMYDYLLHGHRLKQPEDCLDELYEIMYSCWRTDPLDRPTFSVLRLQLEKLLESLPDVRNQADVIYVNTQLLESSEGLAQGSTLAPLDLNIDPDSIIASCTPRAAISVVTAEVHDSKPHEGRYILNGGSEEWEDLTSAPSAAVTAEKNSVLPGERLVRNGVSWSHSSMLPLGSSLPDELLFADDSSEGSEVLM
BrSK1(h), sequence (Q8TDC3 whole entry): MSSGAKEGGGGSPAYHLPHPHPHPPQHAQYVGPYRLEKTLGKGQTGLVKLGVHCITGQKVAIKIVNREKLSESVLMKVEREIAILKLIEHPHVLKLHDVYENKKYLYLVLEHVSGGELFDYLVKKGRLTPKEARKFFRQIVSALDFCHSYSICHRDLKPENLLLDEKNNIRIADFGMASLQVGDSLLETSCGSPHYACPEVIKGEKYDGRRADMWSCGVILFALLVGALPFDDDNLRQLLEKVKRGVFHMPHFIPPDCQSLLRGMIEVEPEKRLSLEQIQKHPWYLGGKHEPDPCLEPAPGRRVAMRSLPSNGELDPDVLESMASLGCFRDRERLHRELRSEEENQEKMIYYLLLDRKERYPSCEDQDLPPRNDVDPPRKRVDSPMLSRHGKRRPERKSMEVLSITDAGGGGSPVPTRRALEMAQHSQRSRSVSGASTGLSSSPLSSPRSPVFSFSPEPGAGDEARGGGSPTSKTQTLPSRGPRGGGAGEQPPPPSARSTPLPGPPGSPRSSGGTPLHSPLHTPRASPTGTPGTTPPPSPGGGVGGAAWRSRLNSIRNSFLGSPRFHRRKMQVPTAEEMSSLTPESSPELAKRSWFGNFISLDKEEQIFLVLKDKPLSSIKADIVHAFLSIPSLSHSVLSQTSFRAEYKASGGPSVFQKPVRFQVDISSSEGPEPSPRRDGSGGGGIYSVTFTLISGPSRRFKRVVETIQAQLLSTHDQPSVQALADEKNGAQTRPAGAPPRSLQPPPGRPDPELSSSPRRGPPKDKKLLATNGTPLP
PrKX(h), sequence (P51817 whole entry): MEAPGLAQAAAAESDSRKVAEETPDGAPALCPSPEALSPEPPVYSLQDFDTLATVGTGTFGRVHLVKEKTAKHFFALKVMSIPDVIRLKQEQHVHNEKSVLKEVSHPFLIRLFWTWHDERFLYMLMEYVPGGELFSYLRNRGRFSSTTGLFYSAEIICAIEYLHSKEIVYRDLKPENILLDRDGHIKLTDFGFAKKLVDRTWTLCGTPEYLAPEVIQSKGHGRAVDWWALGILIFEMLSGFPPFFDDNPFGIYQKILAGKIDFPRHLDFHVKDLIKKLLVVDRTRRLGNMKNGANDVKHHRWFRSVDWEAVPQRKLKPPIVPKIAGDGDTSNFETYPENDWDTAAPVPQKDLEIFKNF

Broadly, the inhibition is the percentage by which the read-out fell short of the control. For the molecule `CN1CCCC1CCNC(=O)c1cn2c3c(c(N4CCC(c5cnccn5)C4)c(F)cc3c1=O)Oc1cc3ccccc3cc1-2` (centres unmarked) [Compound A-1], the remaining activity at 2.5 µM in experiment [1] worked out at 79%; in experiment [2] it was 99%; in experiment [3], 96%; in [4], 115%; in experiment [5], 48%; in experiment [6], 11%. Moreover, the remaining activity at 2.5 µM stood at 91% in experiment [7]; 93% in [8]; 125% in experiment [9]; 90% in experiment [10]; 95% in experiment [11]; 86% in experiment [12]. Moreover, the remaining activity at 2.5 µM in [13] stood at 117%; in experiment [14], 88%; in experiment [15], 41%; in experiment [16] it was 111%; in experiment [17], 46%; in experiment [18], 75%. Besides, the remaining activity at 2.5 µM in experiment [19] came to 79%; in [20], 90%; in [21], 98%; in [22] it was 98%; in experiment [23], 73%. Further, the inhibition at 2.5 µM in experiment [6] was greater than 80%.

With `CC(=O)N1CCN(c2ccc3c(=O)c(C(=O)NCCN4CCCC4)c4n(C)c5ccccc5n4c3n2)CC1` [Compound B-1], the remaining activity at 2.5 µM in [1] came out at 104%; in experiment [2], 107%; in experiment [3], 103%; in [4], 116%; in [5], 111%; in [6], 117%. Besides, the remaining activity at 2.5 µM in experiment [7] came out at 114%; in experiment [8] it was 99%; in [9], 75%; in experiment [10], 83%; in experiment [11], 101%; in experiment [12], 102%. In addition, the remaining activity at 2.5 µM was found to be 102% in [13]; 106% in experiment [14]; 107% in experiment [15]; 125% in experiment [16]; 118% in experiment [17]; 96% in experiment [18]. Also, the remaining activity at 2.5 µM was determined as 94% in experiment [19]; 102% in experiment [20]; 107% in [21]; 120% in experiment [22]; 92% in experiment [23].
